Read-outs that look alike come from different tables or passages of the source.
How the values were obtained:
[1] = test system: Laodelphax striatellus Fallen--Smaller brown planthopper; experiment: Effect on smaller brown planthopper (mortality, treated rice seedlings); assay type: in vivo; conditions: female adults, 25° C., 48 hours
Method: (§1) Effect on Laodelphax striatellus Fallen--Smaller brown planthopper Each compound of the present invention was dissolved in acetone to prepare an acetone solution having a predetermined concentration, and 3 ml of the acetone solution was applied over a bundle of several rice seedlings (about third leaf stage). After drying in air, the treated seedlings were covered with a metal gauze cylinder, and ten female adults of smaller brown planthopper were introduced into the cylinder. Afterward, this cylinder was placed in a temperature controlled room at 25° C. and after 48 hours, mortality was checked.

[2] = test system: resistant strain of Nepphotettix cincticeptus Unler--Resistant green rice leafhopper; experiment: Effect on resistant green rice leafhopper (mortality, treated rice seedlings); assay type: in vivo; conditions: for mortality at 200 ppm / mortality at 1000 ppm: Nephotettix cincticeps
Method: Effect on resistant strain of Nepphotettix cincticeptus Unler--Resistant green rice leafhopper
as §1, with “Each” for “Effect on Laodelphax striatellus Fallen--Smaller brown planthopper Each”, “resistant green rice leafhopper” for “smaller brown planthopper”, “C.,” for “C.”

[3] = test system: Spodoptera litura Fabricius--Common cutworm; experiment: Effect on common cutworm (mortality, leaf immersion); assay type: in vivo; conditions: second instar larvae, 25° C.; for mortality at 1000 ppm: Spodoptera litura, 72 h; for Mortality (%): 1000 ppm, 72 hours, 4320 min
Method: (§2) 20 parts of a compound of the present invention, 10 parts of Sorpol 355S (made by Toho Chemical Co., Ltd., a surface active agent), 70 parts of xylene were uniformly stirred and mixed to obtain an emulsion. Here, the parts mean parts by weight, which will apply to the following.
Effect on Spodoptera litura Fabricius--Common cutworm
The emulsion of each compound of the present invention prepared according to Formulation Example 1 was diluted with distilled water to a predetermined concentration, and a spreading agent New Gramin, made by Sankyo Co., Ltd.) was then added thereto so that its concentration might be 0.02%. Then, 3leaves of Ipomea batatas were fully immersed in the solution. After drying in air, the leaves were placed in a plastic cup having a diameter of 9 cm and a depth of 4 cm, and 10 second instar larvae of common cutworm were allowed to eat the leaves at 25° C. After 72 hours, mortality was checked.

[4] = test system: Myzus persicae Sulzer--Green peach aphid; experiment: Effect on green peach aphid (mortality, sprayed eggplant seedlings); assay type: in vivo; conditions: for mortality at 10 ppm / mortality at 100 ppm: Myzus persicae, 48 h; for Mortality (%): 48 hours
Method: as §2
Effect on Myzus persicae Sulzer--Green peach aphid
The emulsion of each compound of the present invention prepared according to Formulation Example 1 was diluted with distilled water to a predetermined concentration, and a spreading agent (New Gramn, made by Sankyo Co., Ltd.) was then added thereto so that its concentration might be 0.02%. Then, the thus prepared chemical solution was sprayed over eggplant seedlings of 2nd and 3rd plastochrons, on which green peach aphids had been parasitic, and the seedlings were the cultivated in a hothouse. After 48 hours, the number of the alive green peach aphid was counted to calculate mortality.

[5] = Acute toxicity to mice (oral); conditions: mouse, in vivo; oral (stomach tube); male mice 6 weeks old; 14 days observation
Method: 5-week-old male mice (Crj: CD-1) were purchased and then tamed for 1 week, and so the mice of 6 weeks old were tested. The mice were bred in a breeding chamber having a temperature of 23°±2° C., a humidity of 50±10%, a ventilation frequency of 15 times/hour and a lighting time of 12 hours/day. A solid feed (CE-2, made by Nippon Clea) was given, and as drinking water, tap water was freely given.
Each compound to be tested was Suspended in acetone:corn oil (1:9) by the use of a high-speed homogenizer, and then orally administered forcedly to the mice to be tested through a stomach tube. The amount of the solution to be administered was 0.1 ml with respect to 10 g of weight (10 ml/kg).
One administration group was constituted of 5 mice, and an observation period was 14 days from the administration.

[6] = 200 ppm, female adults, 25° C., 48 hours, read-out: Mortality (%)
[7] = 1000 ppm, female adults, 25° C., 48 hours, read-out: Mortality (%)

Compound	Mortality (%) ([1]; 200 ppm)	Mortality (%) ([1]; 1000 ppm)	mortality at 200 ppm [2, 6]	mortality at 1000 ppm [2, 7]	mortality at 1000 ppm [3]	mortality at 10 ppm ([4]; 10 ppm)	mortality at 100 ppm ([4]; 100 ppm)	mortality at 200 ppm ([2]; 48 h)	mortality at 1000 ppm ([2]; 48 h)	LD50 at 336 h [5]	Mortality (%) ([2]; 200 ppm, female adults, 25° C., 48 hours)	Mortality (%) ([2]; 1000 ppm, female adults, 25° C., 48 hours)	Mortality (%) [3]	Mortality (%) ([4]; 10 ppm, 2880 min)	Mortality (%) ([4]; 100 ppm)
O=[N+]([O-])N=C1NCCN1CC1CCCO1 (centres unmarked) [Comparative Compound (1), 1-[(tetrahydro-2-furanyl)methyl]-2-(nitroimino)imidazolidine, reference compound]	0%	20%	0%	30%	0%	0%	0%	–	–	–	–	–	–	–	–
CC1CC(CN2CCNC2=N[N+](=O)[O-])CO1 (centres unmarked) [Compound No. 5, 1-[(2-methyl-4-tetrahydrofuryl)methyl]-2-(nitroimino)imidazolidine]	100%	100%	100%	100%	–	100%	100%	–	–	–	–	–	–	–	–
CC(=O)N1CCCN(CC2COC(C)C2)C1=N[N+](=O)[O-] (centres unmarked) [Compound No. 10, 1-(methylcarbonyl)-3-[(2-methyl-4-tetrahydrofuryl)methyl]-2-(nitroimino) hexahydropyrimidine]	100%	100%	100%	100%	100%	100%	100%	–	–	–	–	–	–	–	–
CC1CC(CN2CCCNC2=N[N+](=O)[O-])CO1 (centres unmarked) [Compound No. 2, 1-[(2-methyl-4-tetrahydrofuryl)methyl]-2-(nitroimino)hexahydropyrimidine]	100%	100%	–	–	–	100%	100%	100%	100%	> 500 mg/kg	–	–	–	–	–
CCC(=O)N1CCCN(CC2CCOC2)C1=N[N+](=O)[O-] (centres unmarked) [Compound No. 13, 1-propionyl-2-(nitroimino)-3-[(tetrahydro-3-furanyl)methyl]hexahydropyrimidine]	100%	100%	–	–	–	–	–	–	–	–	100%	100%	100%	27%	100%
O=[N+]([O-])N=C1NCCCN1CC1CCOC1 (centres unmarked) [Compound No. 1, 1-[(tetrahydro-3-furanyl)methyl]-2-(nitroimino)hexahydropyrimidine]	100%	100%	–	–	70%	100%	100%	100%	100%	> 300 mg/kg	–	–	–	–	–
O=[N+]([O-])N=C1NCCN1Cc1ccoc1 [Comparative Compound (2), reference compound]	0%	40%	–	–	0%	–	–	–	–	–	–	–	–	–	–
CC(C)C(=O)N1CCCN(CC2CCOC2)C1=N[N+](=O)[O-] (centres unmarked) [Compound No. 9, 1-(isopropylcarbonyl)-2-(nitroimino)-3-[(tetrahydro-3-furanyl)methyl]hexahydropyrimidine]	100%	100%	100%	100%	–	86%	100%	–	–	–	–	–	–	–	–
O=[N+]([O-])C=C1NCCCN1CC1CCOC1 (centres unmarked) [Comparative Compound (3), reference compound]	–	–	–	–	0%	–	–	–	–	–	–	–	–	–	–
O=[N+]([O-])N=C1NCCN1CC1CCOC1 (centres unmarked) [Compound No. 4, 1-[(tetrahydro-3-furanyl)methyl]-2-(nitroimino)imidazolidine]	100%	100%	100%	100%	100%	67%	100%	–	–	–	–	–	–	–	–
CCCC(=O)N1CCN(CC2CCOC2)C1=N[N+](=O)[O-] (centres unmarked) [Compound No. 12, 1-(propylcarbonyl)-2-(nitroimino)-3-[(tetrahydro-3-furanyl)methyl]imidazolidine]	100%	100%	100%	100%	100%	0%	66%	–	–	–	–	–	–	–	–
CC(=O)N1CCCN(CC2CCOC2)C1=N[N+](=O)[O-] (centres unmarked) [Compound No. 8, 1-(methylcarbonyl)-2-(nitroimino)-3-[(tetrahydro-3-furanyl)methyl]hexahydropyrimidine]	100%	100%	100%	100%	–	100%	100%	–	–	–	–	–	–	–	–
CC1(C)CC(CN2CCNC2=N[N+](=O)[O-])CO1 (centres unmarked) [Compound No. 6, 1-[(2,2-dimethyl-4-tetrahydrofuryl)methyl]-2-(nitroimino)imidazolidine]	100%	100%	100%	100%	–	82%	100%	–	–	–	–	–	–	–	–
O=[N+]([O-])/N=C1\NCCCN1Cc1ccc(Cl)nc1 [Comparative Compound (4), reference compound]	–	–	–	–	–	–	–	–	–	30 to 100 mg/kg	–	–	–	–	–
CCC(=O)N1CCCN(CC2CCOC2)C1=N[N+](=O)[O-] (centres unmarked) [Compound No. 11, 1-(ethylcarbonyl)-2-(nitroimino)-3-[(tetrahydro-3-furanyl)methyl]hexahydropyrimidine]	100%	100%	100%	100%	–	–	100%	–	–	–	–	–	70%	–	–
CC1(C)CC(CN2CCCNC2=N[N+](=O)[O-])CO1 (centres unmarked) [Compound No. 3, 1-[(2,2-dimethyl-4-tetrahydrofuryl)methyl]-2-(nitroimino)hexahydropyrimidine]	100%	100%	100%	100%	–	100%	100%	–	–	–	–	–	–	–	–
CC(=O)N1CCN(CC2CCOC2)C1=N[N+](=O)[O-] (centres unmarked) [Compound No. 7, 1-(methylcarbonyl)-2-(nitroimino)-3-[(tetrahydro-3-furanyl)methyl]imidazolidine]	100%	100%	100%	100%	100%	63%	100%	–	–	–	–	–	–	–	–

— patent US5614527A, “Insecticidal tetrahydrofuran-compound” (Mitsui Toatsu Chemicals, Inc., priority 1994, dated 1997)
